Assay results from ChEMBL document CHEMBL1145392, “Natural feruloyl monoglyceride macrocycles as protecting factors against free-radical damage of lipidic membranes” (Bioorg Med Chem Lett, 2007).
Calls of active or inactive are those of the source.

Experiments:
Assay type in all cases: functional
[1] = Hydrogen peroxide radical scavenging activity
[2] = Superoxide radical scavenging activity assessed as NBT reduction
Liver microsomes = experiment: Inhibition of lipid peroxidation activity in Wistar rat liver microsomes by TBRAS assay; conditions: Microsome

Measured: Activity

COc1cc(/C=C/C(=O)OCC2COC(=O)CCCCCCCCCCCCCCCCCCCCCCCCCCCCO2)ccc1O (configuration not stated)
active: all assays above

COc1cc(/C=C/C(=O)OCC2COC(=O)CCCCCCCCCCCCCCCCCCCCCCCCCCCCCO2)ccc1O (configuration not stated)
active: all assays above

COc1cc(/C=C/C(=O)OCC2COC(=O)CCCCCCCCCCCCCCCCCCCCCCCCCCO2)ccc1O (configuration not stated)
active: all assays above

COc1cc(/C=C/C(=O)OCC2COC(=O)CCCCCCCCCCCCCCCCCCCCCCCO2)ccc1O (configuration not stated)
active: all assays above

COc1cc(/C=C\C(=O)OCC2COC(=O)CCCCCCCCCCCCCCCCCCCCCCCCCCCCCCCCCO2)ccc1O (configuration not stated)
active: all assays above

COc1cc(/C=C/C(=O)OCC2COC(=O)CCCCCCCCCCCCCCCCCCO2)ccc1O (configuration not stated)
active: all assays above

COc1cc(/C=C\C(=O)OCC2COC(=O)CCCCCCCCCCCCCCCCCCCCCCCCO2)ccc1O (configuration not stated)
active: all assays above

COc1cc(/C=C/C(=O)OCC2COC(=O)CCCCCCCCCCCCCCCCCCCCO2)ccc1O (configuration not stated)
active: all assays above

COc1cc(/C=C/C(=O)OCC2COC(=O)CCCCCCCCCCCCCCCCCCCCCCCCO2)ccc1O (configuration not stated)
active: all assays above
